# Measurements from patent US8426408B2, “Pyrimidine inhibitors of kinases” (AbbVie Inc., priority 2009, dated 2013).
# How the values were obtained:
# Assay type in all cases: biochemical
# Aurora B = biological target: T1, Aurora B (Homo sapiens, UniProt Q96GD4); assay: Aurora B enzyme inhibition (time-resolved fluorescence, histone H3 peptide); details: 1 mM ATP
# T1 construct: Active Aurora B enzyme (recombinant residues 1-344)
# Method: To determine Aurora B activity of representative compounds of the invention, Active Aurora B enzyme (recombinant residues 1-344) and INCENP (recombinant GST fusion protein (Upstate)) were incubated in wells of a 384 well plate with biotinylated histone H3 peptide residues 1-21 (Upstate), 1 mM ATP, and various concentrations of inhibitors in a HEPES buffer, pH 7.4 containing MgCl2, sodium othrovanadate, and Triton X-100. After 1 hour, the reaction was stopped with EDTA and anti-phospho-histone H3 Europium Cryptate (Cis-Bio) and SA-APC (Phycolink, Prozyme) were added to detect the phosphopeptide. The amount of phosphorylation was determined by the time-resolved fluorescence ratio of signals at 665 nm and 615 nm. The IC50's were calculated by an exponential fit of the inhibition values with the inhibitor concentrations using Assay Explorer software.
# Aurora A = biological target: T2, Aurora A (Homo sapiens, UniProt O14965); assay: Aurora A enzyme inhibition (time-resolved fluorescence, STK substrate-2); details: 1 mM ATP
# T2 sequence (O14965 1-403): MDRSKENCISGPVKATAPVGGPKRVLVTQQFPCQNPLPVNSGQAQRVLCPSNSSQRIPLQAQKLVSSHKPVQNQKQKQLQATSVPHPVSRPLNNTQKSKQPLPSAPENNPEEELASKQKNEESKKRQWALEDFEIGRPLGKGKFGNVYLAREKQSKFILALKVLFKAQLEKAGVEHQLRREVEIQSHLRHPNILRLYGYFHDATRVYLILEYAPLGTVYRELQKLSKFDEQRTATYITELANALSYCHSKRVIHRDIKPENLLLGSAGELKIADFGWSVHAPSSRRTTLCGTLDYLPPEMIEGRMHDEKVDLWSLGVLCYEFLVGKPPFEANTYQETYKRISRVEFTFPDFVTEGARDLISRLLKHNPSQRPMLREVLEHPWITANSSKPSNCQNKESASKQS
# Method: To determine Aurora A and C activity of representative compounds of the invention, Active Aurora A or C enzyme was incubated in wells of a 384 well plate with biotinylated STK substrate-2 (Upstate), 1 mM ATP, and various concentrations of inhibitors in a Hepes buffer, pH 7.4 containing MgCl2, sodium othrovanadate, and Triton X-100. After 1 hour, the reaction was stopped with EDTA and anti-phospho-STK antibody Europium Cryptate (Upstate) and SA-XL665 (Upstate) were added to detect the phosphopeptide. The amount of phosphorylation was determined by the time-resolved fluorescence ratio of signals at 665 nm and 615 nm. The IC50s were calculated by an exponential fit of the inhibition values with the inhibitor concentrations using Assay Explorer software.
# KDR = KDR (Homo sapiens, UniProt P35968); assay: KDR HTRF in vitro kinase assay; set-up: purified enzyme (His6-KDR 789-1354, MW 63 kD); His6 (N); details: 1 mM ATP; read-out: KDR enzyme inhibition data (Ki)
# Method: To determine the activity of the various kinases, a homogenous time-resolved fluorescence (HTRF) in vitro kinase assay was used. (Mathis, G., HTRF® Technology. J Biomol Screen, 1999. 4(6): p. 309-314; Alfred J. Kolb, Paul V. Kaplita, David J. Hayes, Young-Whan Park, Christine Pernell, John S. Major and Gerard Mathis, Drug Discovery Today, 1998, 3, 333-342.)
# For example for KDR, 7 ng/well of purified enzyme (His6-KDR 789-1354, MW 63 kD) was mixed with 0.5 μM N-biotinylated substrate (Biotin-Ahx-AEEEYFFLA-amide (SEQ. ID. 1)), various concentrations of inhibitor in reaction buffer (50 mM HEPES, pH 7.1, 10 mM MgCl2, 2 mM MnCl2, 0.1% BSA and 1 mM DTT, 40 L final volume), ATP (1 mM final conc.) in a black 384-well plate. After 60 minutes incubation at room temperature, the reaction was quenched by addition of a buffered EDTA solution (final approximate concentrations: 30 mM EDTA, 0.1% BSA, 0.1% Triton X-100 and 0.24M KF) and a solution of revelation agents (to give 0.084 ng/well streptavidin-XL-665 (Cis-Bio) and 6.5 ng/well antiphsophotyrosine mAb PT66-K Europium kryptate) was added to the reaction mixture. The quenched reaction was allowed to stand at room temperature for 3 hours and was then read in a time-resolved fluorescence detector (InVision, Perkin-Elmer) at 620 nm and 665 nm sequentially with excitation. The ratio between the signal of 620 nm and 665 nm was used in the calculation of the IC50.
# T1 sequence (Q96GD4 whole entry, the tested form may be a part): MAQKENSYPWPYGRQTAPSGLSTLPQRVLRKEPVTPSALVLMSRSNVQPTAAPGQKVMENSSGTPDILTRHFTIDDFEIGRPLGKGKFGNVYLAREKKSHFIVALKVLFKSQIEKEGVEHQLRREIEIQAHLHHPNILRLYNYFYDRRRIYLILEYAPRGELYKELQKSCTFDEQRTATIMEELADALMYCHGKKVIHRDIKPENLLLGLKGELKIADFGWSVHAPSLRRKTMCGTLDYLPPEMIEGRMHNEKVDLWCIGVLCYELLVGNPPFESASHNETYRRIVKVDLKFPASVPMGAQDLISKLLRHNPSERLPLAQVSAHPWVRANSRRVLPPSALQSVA
# T1 sequence (Q9NQS7 826-918 partner limits assumed): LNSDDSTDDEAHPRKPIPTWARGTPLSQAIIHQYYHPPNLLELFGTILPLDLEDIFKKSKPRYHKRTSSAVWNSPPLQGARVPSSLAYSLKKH
# KDR, sequence (P35968 789-1354): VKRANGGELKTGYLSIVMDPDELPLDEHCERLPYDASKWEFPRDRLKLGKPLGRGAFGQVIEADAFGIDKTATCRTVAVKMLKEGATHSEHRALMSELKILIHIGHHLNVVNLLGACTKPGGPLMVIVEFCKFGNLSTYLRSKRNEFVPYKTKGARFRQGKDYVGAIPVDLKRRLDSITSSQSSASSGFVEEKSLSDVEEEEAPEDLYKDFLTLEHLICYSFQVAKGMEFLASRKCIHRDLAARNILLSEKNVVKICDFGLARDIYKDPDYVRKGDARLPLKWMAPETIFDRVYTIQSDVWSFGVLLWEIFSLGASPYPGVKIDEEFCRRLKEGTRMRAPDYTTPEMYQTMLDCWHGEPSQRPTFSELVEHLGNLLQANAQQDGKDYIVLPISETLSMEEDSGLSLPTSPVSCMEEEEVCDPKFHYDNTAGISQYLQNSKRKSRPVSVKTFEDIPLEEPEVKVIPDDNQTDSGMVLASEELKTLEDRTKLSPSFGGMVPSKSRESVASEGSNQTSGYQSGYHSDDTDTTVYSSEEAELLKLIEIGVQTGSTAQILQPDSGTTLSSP
SMILES,Ki (Aurora B),Ki (Aurora A),Ki (KDR)
"CCn1cc(Nc2ncc(Cl)c(N[C@@H]3[C@H]4CC[C@H](C4)[C@@H]3C(N)=O)n2)cn1.CCn1cc(Nc2ncc(Cl)c(N[C@H]3[C@@H]4CC[C@@H](C4)[C@H]3C(N)=O)n2)cn1 (mixture of isomers) [Example 57, (1R,2S,3R,4S)-3-({5-chloro-2-[(1-ethyl-1H-pyrazol-4-yl)amino]pyrimidin-4-yl}amino)bicyclo[2.2.1]heptane-2-carboxamide and (1S,2R,3S,4R)-3-({5-chloro-2-[(1-ethyl-1H-pyrazol-4-yl)amino]pyrimidin-4-yl}amino)bicyclo[2.2.1]heptane-2-carboxamide]",< 100 nM,< 100 nM,< 100 nM
"CN(C)C(=O)Cn1cc(Nc2ncc(Cl)c(N[C@@H]3[C@H]4CC[C@H](C4)[C@@H]3C(N)=O)n2)cn1.CN(C)C(=O)Cn1cc(Nc2ncc(Cl)c(N[C@H]3[C@@H]4CC[C@@H](C4)[C@H]3C(N)=O)n2)cn1 (mixture of isomers) [Example 58, (1R,2S,3R,4S)-3-{[5-chloro-2-({1-[2-(dimethylamino)-2-oxoethyl]-1H-pyrazol-4-yl}amino)pyrimidin-4-yl]amino}bicyclo[2.2.1]heptane-2-carboxamide and (1S,2R,3S,4R)-3-{[5-chloro-2-({1-[2-(dimethylamino)-2-oxoethyl]-1H-pyrazol-4-yl}amino)pyrimidin-4-yl]amino}bicyclo[2.2.1]heptane-2-carboxamide]",< 100 nM,< 100 nM,< 100 nM
"NC(=O)[C@@H]1[C@H](Nc2nc(Nc3cnn(CCN4CCCC4)c3)ncc2Cl)[C@H]2C=C[C@@H]1C2 (racemic) [Example 34, (1S,2S,3R,4R)-3-[(5-chloro-2-{[1-(2-pyrrolidin-1-ylethyl)-1H-pyrazol-4-yl]amino}pyrimidin-4-yl)amino]bicyclo[2.2.1]hept-5-ene-2-carboxamide and (1R,2R,3S,4S)-3-[(5-chloro-2-{[1-(2-pyrrolidin-1-ylethyl)-1H-pyrazol-4-yl]amino}pyrimidin-4-yl)amino]bicyclo[2.2.1]hept-5-ene-2-carboxamide]",< 100 nM,< 100 nM,< 100 nM
"CCN(CC)CCn1cc(Nc2ncc(Cl)c(N[C@H]3[C@@H](C(N)=O)[C@@H]4C=C[C@H]3C4)n2)cn1 (racemic) [Example 35, (1S,2S,3R,4R)-3-{[5-chloro-2-({1-[2-(diethylamino)ethyl]-1H-pyrazol-4-yl}amino)pyrimidin-4-yl]amino}bicyclo[2.2.1]hept-5-ene-2-carboxamide and (1R,2R,3S,4S)-3-{[5-chloro-2-({1-[2-(diethylamino)ethyl]-1H-pyrazol-4-yl}amino)pyrimidin-4-yl]amino}bicyclo[2.2.1]hept-5-ene-2-carboxamide]",< 100 nM,< 100 nM,< 100 nM

# Next, values leading:
Ki (Aurora B),Ki (Aurora A),Ki (KDR),SMILES
< 100 nM,< 100 nM,< 100 nM,"NC(=O)[C@@H]1[C@H]2CC[C@H](C2)[C@@H]1Nc1nc(Nc2cnn(CCO)c2)ncc1Cl.NC(=O)[C@H]1[C@@H]2CC[C@@H](C2)[C@H]1Nc1nc(Nc2cnn(CCO)c2)ncc1Cl (mixture of isomers) [Example 59, (1R,2S,3R,4S)-3-[(5-chloro-2-{[1-(2-hydroxyethyl)-1H-pyrazol-4-yl]amino}pyrimidin-4-yl)amino]bicyclo[2.2.1]heptane-2-carboxamide and (1S,2R,3S,4R)-3-[(5-chloro-2-{[1-(2-hydroxyethyl)-1H-pyrazol-4-yl]amino}pyrimidin-4-yl)amino]bicyclo[2.2.1]heptane-2-carboxamide]"
< 100 nM,< 100 nM,< 100 nM,"NC(=O)[C@@H]1[C@H]2CC[C@H](C2)[C@@H]1Nc1nc(Nc2cnn(CCN3CCOCC3)c2)ncc1Cl.NC(=O)[C@H]1[C@@H]2CC[C@@H](C2)[C@H]1Nc1nc(Nc2cnn(CCN3CCOCC3)c2)ncc1Cl (mixture of isomers) [Example 60, (1R,2S,3R,4S)-3-[(5-chloro-2-{[1-(2-morpholin-4-ylethyl)-1H-pyrazol-4-yl]amino}pyrimidin-4-yl)amino]bicyclo[2.2.1]heptane-2-carboxamide and (1S,2R,3S,4R)-3-[(5-chloro-2-{[1-(2-morpholin-4-ylethyl)-1H-pyrazol-4-yl]amino}pyrimidin-4-yl)amino]bicyclo[2.2.1]heptane-2-carboxamide]"
< 100 nM,< 100 nM,< 100 nM,"Cn1cc(Nc2ncc(C(F)(F)F)c(N[C@@H]3[C@H](C(=O)NCCO)[C@H]4C=C[C@@H]3C4)n2)cn1.Cn1cc(Nc2ncc(C(F)(F)F)c(N[C@H]3[C@@H](C(=O)NCCO)[C@@H]4C=C[C@H]3C4)n2)cn1 (mixture of isomers) [Example 67, (1S,2S,3R,4R)—N-(2-hydroxyethyl)-3-{[2-[(1-methyl-1H-pyrazol-4-yl)amino]-5-(trifluoromethyl)pyrimidin-4-yl]amino}bicyclo[2.2.1]hept-5-ene-2-carboxamide and (1R,2R,3S,4S)—N-(2-hydroxyethyl)-3-{[2-[(1-methyl-1H-pyrazol-4-yl)amino]-5-(trifluoromethyl)pyrimidin-4-yl]amino}bicyclo[2.2.1]hept-5-ene-2-carboxamide]"
< 100 nM,< 100 nM,< 100 nM,"CCn1cc(Nc2ncc(C(F)(F)F)c(N[C@@H]3[C@H](C(=O)NCCO)[C@H]4C=C[C@@H]3C4)n2)cn1.CCn1cc(Nc2ncc(C(F)(F)F)c(N[C@H]3[C@@H](C(=O)NCCO)[C@@H]4C=C[C@H]3C4)n2)cn1 (mixture of isomers) [Example 68, (1S,2S,3R,4R)-3-{[2-[(1-ethyl-1H-pyrazol-4-yl)amino]-5-(trifluoromethyl)pyrimidin-4-yl]amino}-N-(2-hydroxyethyl)bicyclo[2.2.1]hept-5-ene-2-carboxamide and (1R,2R,3S,4S)-3-{[2-[(1-ethyl-1H-pyrazol-4-yl)amino]-5-(trifluoromethyl)pyrimidin-4-yl]amino}-N-(2-hydroxyethyl)bicyclo[2.2.1]hept-5-ene-2-carboxamide]"
< 100 nM,< 100 nM,< 100 nM,"CCn1cc(Nc2ncc(C(F)(F)F)c(N[C@@H]3[C@H](C(=O)NC4CC4)[C@H]4C=C[C@@H]3C4)n2)cn1.CCn1cc(Nc2ncc(C(F)(F)F)c(N[C@H]3[C@@H](C(=O)NC4CC4)[C@@H]4C=C[C@H]3C4)n2)cn1 (mixture of isomers) [Example 71, (1S,2S,3R,4R)—N-cyclopropyl-3-{[2-[(1-ethyl-1H-pyrazol-4-yl)amino]-5-(trifluoromethyl)pyrimidin-4-yl]amino}bicyclo[2.2.1]hept-5-ene-2-carboxamide and (1R,2R,3S,4S)—N-cyclopropyl-3-{[2-[(1-ethyl-1H-pyrazol-4-yl)amino]-5-(trifluoromethyl)pyrimidin-4-yl]amino}bicyclo[2.2.1]hept-5-ene-2-carboxamide]"
